Measured values from PubChem BioAssay AID330 (DTP/NCI, 2004).
“And” between values parts separate entries of the source, which are not always exact repeats. Identical values can stand only once. Inconclusive results and toxic doses are left out. How the source made its calls: active means survival T/C of 150% or more; inactive means T/C below 125% in these data.

Tested on: P388 leukemia ip, CD2F1 mice, survival T/C
Assay: NCI In Vivo Anticancer Drug Screen. Data for tumor model P388 Leukemia (intraperitoneal) in CD2F1 (CDF1) mice
Conditions: endpoint: median survival time, higher = longer survival
In short: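 Mice carrying the transplanted tumor received test compound or vehicle. Survival was recorded in each group, and the value is the treated-group measurement divided by that of the vehicle-treated control group.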

[1] = dose: 50.0 mg/kg/injection, schedule: Q01DX009 (ip), vehicle: saline
[2] = dose: 100.0 mg/kg/injection, schedule: Q01DX009 (ip), vehicle: saline
[3] = dose: 200.0 mg/kg/injection, schedule: Q01DX009 (ip), vehicle: saline
[4] = dose: 25.0 mg/kg/injection, schedule: Q01DX009 (ip), vehicle: saline with Tween-80
[5] = dose: 50.0 mg/kg/injection, schedule: Q01DX009 (ip), vehicle: saline with Tween-80
[6] = dose: 100.0 mg/kg/injection, schedule: Q01DX009 (ip), vehicle: saline with Tween-80
[7] = dose: 25.0 mg/kg/injection, schedule: Q01DX009 (ip), vehicle: Klucel (hydroxypropylcellulose) (HPC)
[8] = dose: 50.0 mg/kg/injection, schedule: Q01DX009 (ip), vehicle: Klucel (hydroxypropylcellulose) (HPC)
[9] = dose: 100.0 mg/kg/injection, schedule: Q01DX009 (ip), vehicle: Klucel (hydroxypropylcellulose) (HPC)
[10] = dose: 200.0 mg/kg/injection, schedule: Q01DX009 (ip), vehicle: Klucel (hydroxypropylcellulose) (HPC)

Measured: T/C

CN1C(=O)NC2(C1=O)C(=O)N(C)C(=O)N2C (stereo not drawn)
inactive: [1] 91 % of control | [2] 92 % of control | [3] 95 % of control

CN1C(=O)CC(Sc2ccccc2)c2cc(Cl)ccc21 (stereo not drawn)
inactive: [4] 99 % of control | [5] 100 % of control | [6] 97 % of control

Cc1ccc(S(=O)(=O)NC(CC(N)=O)C(=O)O)cc1 (stereo not drawn)
inactive: dose: 25.0 mg/kg/injection, schedule: Q01DX009 (ip), vehicle: other 101 % of control | dose: 50.0 mg/kg/injection, schedule: Q01DX009 (ip), vehicle: other 100 % of control | dose: 100.0 mg/kg/injection, schedule: Q01DX009 (ip), vehicle: other 101 % of control | dose: 200.0 mg/kg/injection, schedule: Q01DX009 (ip), vehicle: other 100 % of control | dose: 400.0 mg/kg/injection, schedule: Q01DX009 (ip), vehicle: other 98 % of control

C=C1CCC(OC(C)=O)C2(C)C(OC(C)=O)CC3OC3(C)C2C(OC(C)=O)C2C(C)C(=O)OC2C1Cl (stereo not drawn)
inactive: [7] 99 % of control | [8] 97 % of control | [9] 96 % of control | [10] 93 % of control

NC(CSCCCCl)C(=O)O (stereo not drawn)
inactive: [1] 95 % of control | [2] 95 % of control | [3] 97 % of control

CCC(CC)(COS(C)(=O)=O)COS(C)(=O)=O
inactive: [5] 104 % of control | [6] 101 % of control | dose: 200.0 mg/kg/injection, schedule: Q01DX009 (ip), vehicle: saline with Tween-80 90 % of control | dose: 400.0 mg/kg/injection, schedule: Q01DX009 (ip), vehicle: saline with Tween-80 89 % of control

CN1CCC(CO)C1 (stereo not drawn)
inactive: dose: 12.5 mg/kg/injection, schedule: Q01DX009 (ip), vehicle: water 91 % of control | dose: 25.0 mg/kg/injection, schedule: Q01DX009 (ip), vehicle: water 91 % of control | dose: 50.0 mg/kg/injection, schedule: Q01DX009 (ip), vehicle: water 91 % of control

C[Si](C)(C)c1cnc(N)[nH]c1=O
inactive: [4] 115 % of control | [5] 120 % of control | [6] 120 % of control

CC1=CC2(C)OC(=O)N(c3ccccc3)C2N=C1 (stereo not drawn)
inactive: [8] 111 % of control | [9] 109 % of control

NS(=O)(=O)c1c[nH]c(=O)[nH]c1=O
inactive: [8] 105 % of control | [9] 93 % of control | [10] 97 % of control | dose: 400.0 mg/kg/injection, schedule: Q01DX009 (ip), vehicle: Klucel (hydroxypropylcellulose) (HPC) 91 % of control

CCCCCCCCCCCC(=O)N(CCCC)CCCC
inactive: dose: 37.5 mg/kg/injection, schedule: Q01DX009 (ip), vehicle: Klucel (hydroxypropylcellulose) (HPC) 100 % of control | dose: 75.0 mg/kg/injection, schedule: Q01DX009 (ip), vehicle: Klucel (hydroxypropylcellulose) (HPC) 98 % of control | dose: 150.0 mg/kg/injection, schedule: Q01DX009 (ip), vehicle: Klucel (hydroxypropylcellulose) (HPC) 92 % of control

C1CCc2[nH]nc(-c3n[nH]c4c3CCCCC4)c2CC1
inactive: dose: 60.0 mg/kg/injection, schedule: Q01DX005 (ip), vehicle: Klucel (hydroxypropylcellulose) (HPC) 100 % of control | dose: 120.0 mg/kg/injection, schedule: Q01DX005 (ip), vehicle: Klucel (hydroxypropylcellulose) (HPC) 94 % of control | dose: 240.0 mg/kg/injection, schedule: Q01DX005 (ip), vehicle: Klucel (hydroxypropylcellulose) (HPC) 96 % of control

CCn1c2ccccc2c2cc(N=Nc3ccc(O)c4ccccc34)ccc21
inactive: [8] 105 % of control | [9] 101 % of control and 106 % of control | [10] 100 % of control and 102 % of control

CC(=O)OC1CC2C3(C)CCC4C(C)(C)CCCC4(C)C3CC(O)C2(C)C2C1=COC2OC(C)=O (stereo not drawn)
inactive: dose: 15.0 mg/kg/injection, schedule: Q01DX005 (ip), vehicle: Klucel (hydroxypropylcellulose) (HPC) 102 % of control | dose: 30.0 mg/kg/injection, schedule: Q01DX005 (ip), vehicle: Klucel (hydroxypropylcellulose) (HPC) 120 % of control

O=CC(O)C(O)C(O)C(O)CO (stereo not drawn)
inactive: dose: 12.5 mg/kg/injection, schedule: Q04DX003 (ip), vehicle: saline 108 % of control | dose: 25.0 mg/kg/injection, schedule: Q04DX003 (ip), vehicle: saline 100 % of control | dose: 50.0 mg/kg/injection, schedule: Q04DX003 (ip), vehicle: saline 108 % of control | dose: 60.0 mg/kg/injection, schedule: Q01DX005 (ip), vehicle: saline 103 % of control | dose: 120.0 mg/kg/injection, schedule: Q01DX005 (ip), vehicle: saline 105 % of control | dose: 240.0 mg/kg/injection, schedule: Q01DX005 (ip), vehicle: saline 102 % of control | dose: 1.0 % in 0.5 ml injection vol, schedule: Q01DX009 (ip), vehicle: water 100 % of control | dose: 2.0 % in 0.5 ml injection vol, schedule: Q01DX009 (ip), vehicle: water 103 % of control | dose: 4.0 % in 0.5 ml injection vol, schedule: Q01DX009 (ip), vehicle: water 101 % of control | dose: 8.0 % in 0.5 ml injection vol, schedule: Q01DX009 (ip), vehicle: water 100 % of control and 105 % of control | dose: 16.0 % in 0.5 ml injection vol, schedule: Q01DX009 (ip), vehicle: water 103 % of control and 112 % of control | dose: 32.0 % in 0.5 ml injection vol, schedule: Q01DX009 (ip), vehicle: water 98 % of control and 99 % of control

N#CSCCSC#N
inactive: dose: 6.25 mg/kg/injection, schedule: Q04DX002 (ip), vehicle: Klucel (hydroxypropylcellulose) (HPC) 100 % of control | dose: 12.5 mg/kg/injection, schedule: Q04DX002 (ip), vehicle: Klucel (hydroxypropylcellulose) (HPC) 97 % of control

C[N+]1(Cc2csc(-c3ccc(Cl)cc3)n2)CCOCC1
inactive: dose: 12.5 mg/kg/injection, schedule: Q01DX009 (ip), vehicle: Klucel (hydroxypropylcellulose) (HPC) 100 % of control and 106 % of control | [7] 113 % of control and 96 % of control | [8] 98 % of control and 108 % of control

NC(=O)NN=C(C1CC1)C1CC1
inactive: dose: 3.12 mg/kg/injection, schedule: Q01DX005 (ip), vehicle: Klucel (hydroxypropylcellulose) (HPC) 115 % of control | dose: 6.25 mg/kg/injection, schedule: Q01DX005 (ip), vehicle: Klucel (hydroxypropylcellulose) (HPC) 98 % of control | dose: 12.5 mg/kg/injection, schedule: Q01DX005 (ip), vehicle: Klucel (hydroxypropylcellulose) (HPC) 104 % of control | dose: 50.0 mg/kg/injection, schedule: Q01DX005 (ip), vehicle: Klucel (hydroxypropylcellulose) (HPC) 99 % of control

Cc1ccc(S(=O)(=O)OC2=C3OC(=O)C4(C3C=CC=C2)C2C=CC=CC24)cc1 (stereo not drawn)
inactive: dose: 100.0 mg/kg/injection, schedule: Q01DX001 (ip), vehicle: saline with Tween-80 96 % of control | dose: 200.0 mg/kg/injection, schedule: Q01DX001 (ip), vehicle: saline with Tween-80 93 % of control | dose: 400.0 mg/kg/injection, schedule: Q01DX001 (ip), vehicle: saline with Tween-80 90 % of control

O=C(CCc1nc2ccccc2[nH]1)C1Cc2ccccc2C1=O (stereo not drawn)
inactive: dose: 60.0 mg/kg/injection, schedule: Q01DX005 (ip), vehicle: saline with Tween-80 103 % of control | dose: 120.0 mg/kg/injection, schedule: Q01DX005 (ip), vehicle: saline with Tween-80 104 % of control | dose: 240.0 mg/kg/injection, schedule: Q01DX005 (ip), vehicle: saline with Tween-80 103 % of control

Cn1c(N)c(C(=O)N2CCN(c3ccccc3)CC2)c(=O)n(C)c1=O
inactive: [8] 94 % of control | [9] 97 % of control | [10] 91 % of control

COC(=O)/C(CC(=O)O)=C(\c1ccc2c(c1)OCO2)c1cc(OC)c(OC)c(OC)c1
inactive: dose: 100.0 mg/kg/injection, schedule: Q04DX002 (ip), vehicle: Klucel (hydroxypropylcellulose) (HPC) 100 % of control | dose: 200.0 mg/kg/injection, schedule: Q04DX002 (ip), vehicle: Klucel (hydroxypropylcellulose) (HPC) 103 % of control | dose: 400.0 mg/kg/injection, schedule: Q04DX002 (ip), vehicle: Klucel (hydroxypropylcellulose) (HPC) 100 % of control
